One series addresses human GPR40 receptor (Homo sapiens (Human), UniProt O14842). Put plainly: IP1 accumulation measurements using the IPOne assay system. Type of series: cell-based. As to the method:
IP1 accumulation measurements using the IPOne assay system—1321N1 cells stably expressing human GPR40 receptor (Euroscreen, Belgium) are seeded 24 h before the assay in white 384-well plates in culture medium containing 10% FCS, 1% Na-Pyruvate and 400 μg/mL G418. IP1 is assayed according to the manufacturer's description (Cisbio Bioassays, France). In brief, the assay is started by substitution of the culture medium by stimulation buffer (Hepes 10 mM, CaCl2 1 mM, MgCl2 0.5 mM, KCl 4.2 mM, NaCl 146 mM, glucose 5.5 mM and LiCl 50 mM, pH 7.4). Cells are stimulated for 1 h at 37° C., 5% CO2 by addition of the compounds that are diluted in stimulation buffer containing LiCl. Assays are stopped by adding HTRF-conjugates (IP1-d2 and Anti-IP1 cryptate Tb) and lysis buffer, provided by the manufacturer. After an incubation time of 1 h at room temperature plates are measured using an EnVision™, Perkin Elmer. The obtained fluorescence ratios at 665/615 […] are then used to calculate the pEC50 values using Assay Explorer 3.3 Software (Accelrys, Inc.) by interpolation using an IP1 reference curve and subsequent sigmoidal curve fitting allowing for a variable hill slope.

Another series is described as follows: Aqueous solubility. Type of series: physicochemical. The following applies: buffer pH 2.2, 24 h shaking, 2.5% DMSO; for solubility at 24 h: aqueous buffer, kinetic from dmso stock. Here is the method: Starting from a 10 mM DMSO stock solution aliquots are diluted with acetonitrile/water (1/1) or buffer, respectively. After 24 h of shaking, the solutions are filtrated and analyzed by LC-UV. The amount dissolved in buffer is compared to the amount in the acetonitrile solution.

The target in series [1] is cytochrome P450 2C8-isoenzyme (Homo sapiens (Human), UniProt P10632). Put plainly: Inhibition of CYP-2C8 (amodiaquine deethylation, human liver microsomes). Type of series: in vitro ADME. To be noted: amodiaquine 1 μM, 37° C. Here is the method:
(§1) All assays are carried out on a robotic system in 96 well plates. The final incubation volume contains TRIS buffer (0.1 M), MgCl2 (5 mM), human liver microsomes (0.05 mg/mL), amodiaquine (1 μM) and the test compound at five different concentrations or no compound (high control) in duplicate (e.g. highest concentration 10-50 μM with subsequent serial 1:4 dilutions). Following a short preincubation period, reactions are started with the cofactor (NADPH, 1 mM) and stopped by cooling the incubation down to 8° C. and subsequently by addition of one volume of acetonitrile. An internal standard solution—the stable isotope d5-desethylamodiaquine—is added after quenching of incubations. Peak area analyte (=metabolite formed) and internal standard is determined by LC-MS/MS. The resulting peak area ratio analyte to internal standard in these incubations is compared to a control activity containing no test compound. Within each of the assay runs, the IC50 of a positive control inhibitor (Montelukast) is determined.
(In general: Liver microsomes are a subcellular fraction often used to study metabolism.)

For series [2], the target named is cytochrome P450 2C9-isoenzyme (Homo sapiens (Human), UniProt P11712). Put plainly: Inhibition of CYP-2C9 (diclofenac hydroxylation, human liver microsomes). The following applies: diclofenac 10 μM, 37° C. Type of series: in vitro ADME. As to the method: as §1, with “(0.1” for “(0.05”, “diclofenac (10” for “amodiaquine (1”, “(e.g.,” for “(e.g.”, “^13C6-hydroxydiclofenac—is” for “d5-desethylamodiaquine—is”, “(sulfaphenazole)” for “(Montelukast)”

Setting [3] is: 1321N1 cells stably expressing human GPR40, 1 h stimulation, read-out: EC50.

We go through 12 molecules from patent US10125101B2, “Indanylaminopyridylcyclopropanecarboxylic acids, pharmaceutical compositions and uses thereof” (Boehringer Ingelheim International GmbH, priority 2016, dated 2018).

Molecules are shown by their SMILES. ≈ marks a conversion by molar mass, not a printed value. Read-outs that look alike come from different tables or passages of the source.

One may read the Solubility as the concentration that dissolves in the medium under given conditions. Read a high Solubility as much dissolved substance. As a reminder, the IC50 is the concentration at which inhibition is half-maximal. For orientation: solubility means the dissolved amount per volume that the medium holds.

Sequence of cytochrome P450 2C8-isoenzyme (P10632 whole entry): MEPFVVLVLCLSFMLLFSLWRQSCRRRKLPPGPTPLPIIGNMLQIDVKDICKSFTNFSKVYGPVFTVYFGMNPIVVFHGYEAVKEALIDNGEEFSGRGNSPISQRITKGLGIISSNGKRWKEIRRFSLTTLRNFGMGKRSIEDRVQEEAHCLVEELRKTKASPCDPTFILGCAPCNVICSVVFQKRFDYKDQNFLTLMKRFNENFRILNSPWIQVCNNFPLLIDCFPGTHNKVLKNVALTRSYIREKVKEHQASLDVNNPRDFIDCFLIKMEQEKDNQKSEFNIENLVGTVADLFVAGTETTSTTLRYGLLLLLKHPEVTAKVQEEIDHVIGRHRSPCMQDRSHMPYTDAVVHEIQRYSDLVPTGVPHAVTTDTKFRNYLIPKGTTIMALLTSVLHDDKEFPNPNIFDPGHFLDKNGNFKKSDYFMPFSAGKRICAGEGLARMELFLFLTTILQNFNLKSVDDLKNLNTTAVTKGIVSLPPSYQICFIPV
Sequence of cytochrome P450 2C9-isoenzyme (P11712 whole entry): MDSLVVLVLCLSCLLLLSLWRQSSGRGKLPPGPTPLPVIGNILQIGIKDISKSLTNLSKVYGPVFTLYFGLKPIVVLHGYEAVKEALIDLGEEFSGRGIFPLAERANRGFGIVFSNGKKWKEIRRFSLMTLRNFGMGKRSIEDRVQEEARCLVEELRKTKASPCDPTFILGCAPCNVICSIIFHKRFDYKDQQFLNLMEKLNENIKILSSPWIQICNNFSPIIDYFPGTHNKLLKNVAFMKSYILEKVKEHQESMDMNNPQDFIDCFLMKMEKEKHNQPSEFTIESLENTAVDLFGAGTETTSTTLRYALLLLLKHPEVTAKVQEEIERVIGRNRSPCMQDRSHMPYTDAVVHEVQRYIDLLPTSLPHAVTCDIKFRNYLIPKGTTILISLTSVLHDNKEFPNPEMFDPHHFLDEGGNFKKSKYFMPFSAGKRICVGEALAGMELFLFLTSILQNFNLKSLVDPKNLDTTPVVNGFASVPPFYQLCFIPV
Sequence of human GPR40 receptor (O14842 whole entry): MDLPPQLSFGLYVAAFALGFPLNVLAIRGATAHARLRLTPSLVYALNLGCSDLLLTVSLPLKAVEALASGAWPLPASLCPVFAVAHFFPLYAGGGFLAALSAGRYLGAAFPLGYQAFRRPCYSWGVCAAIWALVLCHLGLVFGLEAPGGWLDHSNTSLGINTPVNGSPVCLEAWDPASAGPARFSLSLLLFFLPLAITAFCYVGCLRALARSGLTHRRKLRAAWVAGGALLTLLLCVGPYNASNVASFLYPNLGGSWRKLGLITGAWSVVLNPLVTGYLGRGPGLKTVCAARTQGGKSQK

With `O=C(O)[C@H]1C[C@@H]1c1ccc(N[C@@H]2CCc3c(-c4c(Cl)cccc4Cl)ccc(F)c32)cn1` [Example 24], the EC50 at human GPR40 receptor (setting [3]) worked out at 4 nM. The “Solubility at pH value 2.2” value in the series “Aqueous solubility” is listed as above 122 μg/mL. Moreover, the figures for the IC50 in series [1] and in series [2] were 11 µM and 22 µM, respectively.
Regarding `Cc1cc(-c2ccnn2C)cc(C)c1-c1ccc(F)c2c1CC[C@H]2Nc1ccc([C@H]2C[C@@H]2C(=O)O)nc1` [Example 19], the EC50 on human GPR40 receptor (setting [3]) was determined as 12 nM. Besides, the “Solubility at pH value 2.2” value in “Aqueous solubility” is on record as 95 μg/mL. Also, the 50% inhibitory concentration (IC50) in series [1] came to 7 µM; in series [2], 26 µM.
On to `Cc1cc(OCCCS(C)(=O)=O)cc(C)c1-c1ccc(F)c2c1CC[C@H]2Oc1ccc([C@H]2C[C@@H]2C(=O)O)nc1` [Example 11 in WO 2013/178575, reference compound], for which the EC50 on human GPR40 receptor (head-to-head compilation, given as IC50, values equal the EC50 of Table 2, read-out: GPR40: IC50) was 8 nM. In addition, the 50% inhibitory concentration (IC50) in series [1] came to 12 µM; in series [2], 17 µM.
`COc1cnc(-c2ccc(-c3cccc4c3CC[C@H]4Nc3ccc([C@H]4C[C@@H]4C(=O)O)nc3)cc2)cn1` [Example 9, (1S,2S)-2-(5-{(R)-4-[4-(5-Methoxy-pyrazin-2-yl)-phenyl]-indan-1-ylamino}-pyridin-2-yl)-cyclopropanecarboxylic acid]: on human GPR40 receptor (setting [3]), the EC50 worked out at 24 nM. For the same molecule, the solubility at 24 h in the series “Aqueous solubility” is below 1 µg/mL. The figures for the half-maximal inhibitory concentration (IC50) in series [1] and in series [2] were 20 µM and above 50 µM, respectively.
In the same order, the values of `Cc1cc(OCCC(C)(C)O)cc(C)c1-c1cccc2c1CC[C@H]2Nc1ccc([C@H]2C[C@@H]2C(=O)O)nc1` [Example 7, (1S,2S)-2-(5-{(R)-4-[4-(3-Hydroxy-3-methyl-butoxy)-2,6-dimethyl-phenyl]-indan-1-ylamino}-pyridin-2-yl)-cyclopropanecarboxylic acid] are 5 nM, 84 µg/mL (≈ 168 µM), above 50 µM and above 50 µM.
For `Cc1c(C#N)cccc1-c1ccc(F)c2c1CC[C@H]2Oc1ccc([C@H]2C[C@@H]2C(=O)O)cc1` [Example 54 in WO 2013/178575, reference compound], the solubility at 24 h in the series “Aqueous solubility” is below 1 µg/mL. Besides, the half-inhibitory concentration (IC50) in series [1] was 9 µM; in series [2] it was 10 µM.
In the same order, the values of `Cc1cc(C(=O)NCC(C)(C)O)cc(C)c1-c1ccc(F)c2c1CC[C@H]2Oc1ccc([C@H]2C[C@@H]2C(=O)O)cc1` [Example 15 in WO 2013/178575, reference compound] are below 1 µg/mL, 10 µM and 31 µM.
As to `Cc1cc(OCCC(C)(C)O)cc(C)c1-c1ccc(F)c2c1CC[C@H]2Nc1ccc([C@@H]2C[C@H]2C(=O)O)nc1` [Example 3, (1R,2R)-2-(5-{(R)-7-Fluoro-4-[4-(3-hydroxy-3-methyl-butoxy)-2,6-dimethyl-phenyl]-indan-1-ylamino}-pyridin-2-yl)-cyclopropanecarboxylic acid], the EC50 at human GPR40 receptor (setting [3]) is 107 nM.
For the molecule `Cc1cccc(C)c1-c1ccc(F)c2c1CC[C@H]2Oc1ccc(C2CC2C(=O)O)cc1` (stereo partly drawn) [Example 33 in WO 2013/178575, reference compound], the IC50 in series [1] came to 5 µM; in series [2], 7 µM.
Regarding `Cc1cc(OCCC(C)(C)O)cc(C)c1-c1ccc(F)c2c1CC[C@H]2Nc1ccc(C2C[C@@H]2C(=O)O)nc1` (stereo partly drawn) [Example 1, trans-2-(5-{(R)-7-Fluoro-4-[4-(3-hydroxy-3-methyl-butoxy)-2,6-dimethyl-phenyl]-indan-1-ylamino}-pyridin-2-yl)-cyclopropanecarboxylic acid], the EC50 at human GPR40 receptor (setting [3]) was 11 nM.
`Cc1cc(-c2nnn(C)n2)cc(C)c1-c1ccc(F)c2c1CC[C@H]2Nc1ccc([C@H]2C[C@@H]2C(=O)O)nc1` [Example 30]: the EC50 at human GPR40 receptor (setting [3]) is 3 nM. The IC50 in series [1] was 20 µM; in series [2], above 50 µM.
`Cc1nnc(-c2ccc(-c3cccc4c3CC[C@H]4Nc3ccc([C@H]4C[C@@H]4C(=O)O)nc3)cc2)o1` [Example 10, (1S,2S)-2-(5-{(R)-4-[4-(5-Methyl-[1,3,4]oxadiazol-2-yl)-phenyl]-indan-1-ylamino}-pyridin-2-yl)-cyclopropanecarboxylic acid]: the EC50 at human GPR40 receptor (setting [3]) stood at 146 nM.
